From patent publication US12643877B2, “Substituted tetrahydroisoquinoiline derivative as a D1 positive allosteric modulator” (UCB Biopharma SRL, priority 2019, dated 2026)
Several values for one entry are separate records, joined by “and”; a condition that tells them apart may be missing. Equal values may be shown once.

Experiments:
[1] = tested on: CYP3A4; experiment: CYP3A4 induction assay in cryopreserved human hepatocytes; format: in vitro ADME
Method: The objective of the human hepatocyte assay is to characterize the induction potential of Compound of formula (I) by measuring the CYP3A4 activities after 3-days of hepatocytes treatment with culture medium alone or culture medium containing increasing concentration of NCE.
To this aim, cryopreserved human hepatocytes from a single donor are seeded on a 48 well collagen coated plate so that the final seeding density is 0.2×10^6 cells/well (final volume per well 0.25 mL). The cells are then incubated in seeding medium at 37° C., 95% humidity, 5% CO2 to allow the cells to attach. […]
For catalytic activity determination, solution of the CYP3A4 probe substrate, midazolam (final concentration 2.5 μM) is prepared in pre warmed assay medium. […] An aliquot of supernatant is diluted with deionised water and levels of 1-hydroxymidazolam is quantified using generic LC MS/MS methods.
The hepatocytes are solubilised in 0.1M sodium hydroxide at room temperature and protein content in each well determined using Pierce™ BCA Protein Assay Kit (Thermo Scientific) using bovine serum albumin as a standard.
The fold-induction (increase in CYP activity) is obtained by taking the ratio of the measured enzymatic activity obtained in hepatocytes treated with Compound of formula (I), over the one obtained in control hepatocytes treated with vehicle. […]

[2] = target: T1, dopamine D1 receptor (Homo sapiens, UniProt P21728); experiment: cAMP HTRF activation assay (absence of dopamine); format: cell-based; conditions: L-M(TK-), 10 μM compound, LMtk cells expressing D1, read-out: % of activation (compared to dopamine maximal response)
T1 construct: host or cells: LMtk (Ltk-) mouse fibroblast cells
From the text: (§1) Assays have been designed to measure the effects of compounds in accordance with the present invention in the absence of dopamine (“activation assay”) and in the presence of dopamine (“potentiation assay”).
The activation assay measures the stimulation of the production of cyclic adenosinemonophosphate (cAMP) in the Homogeneous Time Resolved Fluorescent (HTRF) assay, with the maximum increase in cAMP by increasing concentrations of the endogenous agonist, dopamine, defined as 100% activation.
(§2) Cells were cultured at 37° C. in a humidified atmosphere of 5% CO2. […]
The measurement of changes in intracellular cyclic adenosinemonophopshpate (cAMP) was determined using the HTRF cAMP dynamic assay kit from CisBio (Codolet, France). […] The tracer binding is determined by an anti-cAMP antibody labeled with cryptate. The effects of the compound alone (agonism) was determined by performing the assay in the absence of dopamine, whilst the effect of the compound as a positive allosteric modulator (PAM) was determined in the presence of an EC20 concentration of dopamine. […] This is then incubated for a further 60 min at room temperature and changes in HTRF fluorescent emission ratio determined according to manufacturer's instructions using an Envision plate reader (Perkin Elmer, Zaventem, Belgium) with laser excitation. […]

[3] = target: T2, human GABAA receptor α1,β2 and γ2 subunits (Homo sapiens, UniProt P14867+P18507+P47870); experiment: Automated patch clamp studies on GABAA receptor cells; format: cell-based; conditions: 10 μM compound; GABA 15 μM; CHO-K1 cells; read-out: percentage of inhibition of the GABAA receptor
T2 construct: expressed in transfected cells; host or cells: CHO-K1 cells
Method: CHO-K1 cells stably expressing human GABAA receptor α1,β2 and γ2 subunits were used. The cells were harvested using trypsin and maintained in serum-free medium at room temperature. The cells were washed and re-suspended in extracellular solution before testing.
Experiments on human GABAA (α1β2γ2) channels were conducted using an automated patch clamp assay (IonFlux™ HT). Compounds were tested at 3 concentrations (0.1, 1, and 10 μM) in 3 to 4 cells. The external solution for recording GABAA currents was composed of sodium chloride 137 mM, potassium chloride 4 mM, calcium chloride 1.8 mM, magnesium chloride 1 mM, HEPES 10 mM, and glucose 10 mM. Both external and internal solutions were titrated with NaOH or KOH to obtain a pH of 7.35 or 7.3, respectively. The internal pipette solution contained potassium fluoride 70 mM, potassium chloride 60 mM, sodium chloride 70 mM, HEPES 5 mM, EGTA 5 mM, and Magnesium ATP 4 mM. The final concentration of vehicle used to dilute compounds was 0.33% DMSO in each well. Bicuculline (0.032 to 100 μM) was used as positive control inhibitor. GABA (15 μM) was used as agonist. […]
The compound addition sequence was the following: one addition of the EC80 concentration of GABA was added to establish baseline response. […] Peak inward currents in response to the GABA additions in the presence of a single concentration of compound were measured. […]

[4] = target: T1, dopamine D1 receptor; experiment: cAMP HTRF potentiation assay (presence of EC20 dopamine); format: cell-based
From the text: as §1
The potentiation assay measures the ability of compounds to increase the levels of cAMP produced by a low-threshold concentration of dopamine. The concentration of dopamine used ([EC20]) is designed to produce 20% stimulation compared to the maximal response (100%) seen with increasing the concentration of dopamine. To measure this potentiation increasing concentrations of the compound with the [EC20] of dopamine are incubated and the potentiation is measured as increases in cAMP production and concentration of compound which produces 50% of the potentiation of the cAMP levels is measured.
as §2
The measurement of changes in intracellular cyclic adenosinemonophopshpate (cAMP) was determined using the HTRF cAMP dynamic assay kit from CisBio (Codolet, France). […] The tracer binding is determined by an anti-cAMP antibody labeled with cryptate. The effects of the compound alone (agonism) was determined by performing the assay in the absence of dopamine, whilst the effect of the compound as a positive allosteric modulator (PAM) was determined in the presence of an EC20 concentration of dopamine. […]

T1 sequence (P21728 whole entry): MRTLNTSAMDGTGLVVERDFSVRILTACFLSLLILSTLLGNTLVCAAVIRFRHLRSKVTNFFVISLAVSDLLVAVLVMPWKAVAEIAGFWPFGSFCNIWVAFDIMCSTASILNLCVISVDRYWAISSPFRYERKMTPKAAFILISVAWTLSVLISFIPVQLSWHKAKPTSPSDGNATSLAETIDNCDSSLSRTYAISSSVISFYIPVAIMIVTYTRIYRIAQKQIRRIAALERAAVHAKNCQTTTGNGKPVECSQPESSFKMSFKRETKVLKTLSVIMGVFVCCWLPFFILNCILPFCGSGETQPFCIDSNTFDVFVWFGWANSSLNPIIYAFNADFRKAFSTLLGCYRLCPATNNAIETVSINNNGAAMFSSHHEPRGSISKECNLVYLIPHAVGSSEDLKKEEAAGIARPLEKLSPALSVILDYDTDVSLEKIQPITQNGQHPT
T2 sequence (P14867 28-456): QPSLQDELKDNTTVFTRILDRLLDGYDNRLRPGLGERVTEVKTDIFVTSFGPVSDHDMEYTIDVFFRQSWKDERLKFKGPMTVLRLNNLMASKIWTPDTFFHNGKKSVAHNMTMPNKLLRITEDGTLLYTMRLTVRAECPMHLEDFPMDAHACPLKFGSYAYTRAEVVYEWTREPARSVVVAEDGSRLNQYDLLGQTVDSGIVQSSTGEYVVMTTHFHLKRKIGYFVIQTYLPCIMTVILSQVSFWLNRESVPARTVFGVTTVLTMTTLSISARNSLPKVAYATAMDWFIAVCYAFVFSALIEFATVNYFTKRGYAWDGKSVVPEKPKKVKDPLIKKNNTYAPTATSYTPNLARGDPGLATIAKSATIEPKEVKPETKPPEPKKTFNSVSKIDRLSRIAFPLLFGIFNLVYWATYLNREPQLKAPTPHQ
T2 sequence (P47870 25-512 limits assumed): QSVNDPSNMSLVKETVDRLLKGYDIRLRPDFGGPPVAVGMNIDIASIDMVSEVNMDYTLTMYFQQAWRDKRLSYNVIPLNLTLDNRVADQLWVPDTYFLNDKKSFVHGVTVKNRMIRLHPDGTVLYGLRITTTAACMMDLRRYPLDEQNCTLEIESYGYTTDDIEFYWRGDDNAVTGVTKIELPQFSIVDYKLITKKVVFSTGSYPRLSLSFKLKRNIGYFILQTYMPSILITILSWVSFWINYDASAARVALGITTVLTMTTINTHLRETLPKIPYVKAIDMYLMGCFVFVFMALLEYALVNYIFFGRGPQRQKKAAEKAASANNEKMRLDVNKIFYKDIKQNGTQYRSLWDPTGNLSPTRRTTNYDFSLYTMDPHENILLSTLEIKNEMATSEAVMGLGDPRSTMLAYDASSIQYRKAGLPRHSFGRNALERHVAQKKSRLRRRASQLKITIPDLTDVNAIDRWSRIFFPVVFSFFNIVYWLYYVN
T2 sequence (P18507 40-475): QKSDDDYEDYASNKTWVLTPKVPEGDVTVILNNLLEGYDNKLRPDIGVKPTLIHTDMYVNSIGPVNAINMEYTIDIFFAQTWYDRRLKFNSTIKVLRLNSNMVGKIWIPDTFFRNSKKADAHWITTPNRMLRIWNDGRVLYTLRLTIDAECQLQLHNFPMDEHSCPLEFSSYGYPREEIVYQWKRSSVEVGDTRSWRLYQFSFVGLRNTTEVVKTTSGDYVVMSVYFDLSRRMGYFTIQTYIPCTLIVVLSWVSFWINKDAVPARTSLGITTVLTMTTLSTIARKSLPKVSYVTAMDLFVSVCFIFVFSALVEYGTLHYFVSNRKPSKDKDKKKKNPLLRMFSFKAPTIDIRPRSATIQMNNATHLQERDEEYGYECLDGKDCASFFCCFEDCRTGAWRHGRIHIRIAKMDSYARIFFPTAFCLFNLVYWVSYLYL

Structure (SMILES): C[C@H]1c2cccc(C(C)(C)O)c2C[C@H](CO)N1C(=O)Cc1c(Cl)ccc2c1c(Cl)nn2C [compound of formula (I), 2-(3,5-dichloro-1-methyl-indazol-4-yl)-1-[(1S,3R)-3-(hydroxymethyl)-5-(1-hydroxy-1-methyl-ethyl)-1-methyl-3,4-dihydro-1H-isoquinolin-2-yl]ethanone]
- fold-induction value, times lower than positive control (Rifampicin) ([1]; compound 1 μM vs Rifampicin 10 μM, 72 h, CYP3A4 activity (midazolam)): at least 7 times lower
- induction potential, times lower than positive control (Rifampicin) ([1]; highest fold-induction: compound at highest soluble concentration 3 μM vs Rifampicin 10 μM): about 4 times lower
- Emax at 10 µM [2]: < 20%
- inhibition at 10 µM [3]: < 0.1%
- Erel (relative efficacy) ([4]; maximal potentiation relative to dopamine maximum response (100%)): about 68%
- EC50 ([4]; potentiation of cAMP in presence of EC20 dopamine (1.1 nM), LMtk cells expressing D1): ~7.94 nM and < 316 nM
